# Measured values: patent publication US11058654B2, “Compositions and methods for the treatment of hemoglobinopathies and thalassemias” (AXCELLA HEALTH INC., priority 2018, dated 2021)
# Tests used:
# Type in all cases: cell-based, human
# ICAM-1 = ICAM-1 cell integrated intensity in HLMVEC treated with TNFa; settings: 0.5 ng/mL TNFα; amino acids at 20×; 24 hours; in words
# Source text: (§1) A VEC model was employed to assess the ability of amino acids to influence aspects of vascular dysfunction in SCD. TNFa treatment of healthy donor HLMVEC mimics the SCD disease state and induces expression of adhesion markers ICAM-1 and VCAM-1, and secretion of proinflammatory cytokine IL-6. It is established that levels of ICAM-1, VCAM-1, and IL-6 can contribute to SCD pathology and correlate with the incidence and severity of complications in SCD patients. The VEC model sought to test the ability of amino acids to reduce the TNFa-induced disease phenotype by lowering expression of adhesion markers (ICAM-1 and VCAM-1) and inflammatory cytokines (IL-6) while promoting VEC health and viability.
# Primary Human Lung Microvascular Endothelial Cells (HLMVEC; Lonza) were seeded at 6,000 cells per well in Endothelial Cell Growth Basal Medium-2 (Lonza) supplemented with Fetal Bovine Serum (FBS; Lonza), human EGF (Lonza), human VEGF (Lonza), R3-Insulin-like Growth Factor-1 (Lonza), ascorbic acid (Lonza), hydrocortisone (Lonza), human FGF-beta (Lonza), and gentamicin/amphotericin-b (Lonza) in a 96-well plate (Thermo Fisher). […]
# (§2) Antibody binding was detected by fluorescence microscopy using a high content imager (Molecular Devices). Images were analyzed using MetaXpress 6 software to determine the integrated intensity per cell for each wavelength corresponding to ICAM-1 or VCAM-1.
# VCAM-1 = VCAM-1 cell integrated intensity in HLMVEC treated with TNFa; settings: 0.5 ng/mL TNFα; amino acids at 20×; 24 hours; in words
# Source text: as §1
# Primary Human Lung Microvascular Endothelial Cells (HLMVEC; Lonza) were seeded at 6,000 cells per well in Endothelial Cell Growth Basal Medium-2 (Lonza) supplemented with Fetal Bovine Serum (FBS; Lonza), human EGF (Lonza), human VEGF (Lonza), R3-Insulin-like Growth Factor-1 (Lonza), ascorbic acid (Lonza), hydrocortisone (Lonza), human FGF-beta (Lonza), and gentamicin/amphotericin-b (Lonza) in a 96-well plate (Thermo Fisher). The cells were incubated for 45 minutes at room temperature, then incubated overnight at 37° C./5% CO2.
# Following overnight incubation, cell were washed once with 150 μL of Dulbecco's phosphate buffered saline (DPBS; Gibco), and then treated with Endothelial Basal Medium MCB-131 (amino acid, glucose, sodium pyruvate, and phenol red free; US Biologicals) containing a defined custom amino acid concentration based on physiological concentrations in blood of patients with SCD (thus recapitulating observed metabolic imbalances such as the depletion of certain essential amino acids including arginine and aspartate and enrichment of certain non-essential amino acids including glutamate and asparagine), dialyzed FBS (Hyclone), human EGF (Lonza), human VEGF (Lonza), R3-Insulin-like Growth Factor-1 (Lonza), ascorbic acid (Lonza), hydrocortisone (Lonza), human FGF-beta (Lonza), and gentamicin/amphotericin-b (Lonza), glucose, 10 mM HEPES, sodium pyruvate, and sodium bicarbonate supplemented with one of the following: • a. PBS (vehicle control), • b. 0.5 ng/mL Tumor Necrosis Factor alpha (TNFα) and PBS, or; • c. 0.5 ng/mL TNFα and amino acid treatments at 20× mean physiological concentrations in plasma based on values published in the Human Metabolome Database (HMDB) in PBS.
# After 24 hours of treatment, cells were washed once with 150 μL of DPBS (Gibco), then fixed with 4% paraformaldehyde. […]
# as §2
# [1] = system: whole blood of healthy control donors; assay: Reactive oxygen species (DCF fluorescence, H2O2) in whole blood of healthy controls
# Procedure: (§3) Whole blood samples were appropriately diluted in Ca^2+- and Mg^2+-free Dulbecco's phosphate buffered saline (DPBS, Life Technologies) and the concentration of erythrocytes (RBC/ml) was measured on a Cellometer K2 Fluorescent Viability Cell Counter according to the manufacturer's RBC/AOPI protocol (Nexcelom Biosciences).
# (§4) Cells were then diluted to 1*10^6 RBC/ml into either prewarmed 37° C. […] 2′-7′-dichlorofluorescin diacetate (DCF, Millipore Sigma), 20 mM in dimethyl sulfoxide (DMSO, Fisher) were added to a working concentration of 100 μM. Cells were incubated with dye for 15 minutes at 37° C., 5% CO2 in a tissue culture incubator, washed once, and resuspended in the 0.9 volumes of the same prewarmed 37° C. buffer with 5 minute spins at 500× g, accel/decal=5 in a swing arm centrifuge (Beckman Coulter). […] Where possible due to solubility constrains, pH-7.4-adjusted stock solutions of amino acids were used. Wells were mixed by pipetting and plates incubated at 37° C., 5% CO2 in a tissue culture incubator for 30 minutes. Optionally, 40 mM H2O2(Millipore Sigma) freshly prepared in the same buffer was added to bring the concentration to 2 mM, wells mixed by pipetting, and plates were incubated an additional 30, 60, 120, or 240 minutes before fluorescence measurement of ROS signal on a Synergy H4 (BioTek) microplate reader with excitation=488 nm and emission=530 nm, and gain either set to autogain, 75, or 100.
# [2] = system: sickle cell disease patient blood; assay: Reactive oxygen species (DCF fluorescence, H2O2) in sickle cell disease patient blood
# Procedure: as §3, §4
compound,measurement,setting,value
"NCC(=O)O [Gly, glycine]",TNF-α induced ICAM-1 expression levels in HLMVEC,ICAM-1,reduced levels of ICAM-1 expression to a lesser extent
same,VCAM-1 expression in HLMVEC,VCAM-1,greatly reduced
N[C@@H](CS)C(=O)O [cysteine],ROS measured in whole blood,"[1]; healthy control donors, treated with H2O2, dose-responsive",reduced ROS
same,ROS measured in whole blood,[2]; treated with H2O2 and untreated in DPBS,reduced ROS
N[C@@H](Cc1c[nH]c2ccccc12)C(=O)O [tryptophan],ROS signal,"[1]; healthy donor blood, 10×",increased ROS signal
same,ROS signal,[2]; 10×,increased ROS signal
